Experimental data published in patent US7507748B2, “Substituted aryl-amine derivatives and methods of use” (Amgen Inc., priority 2004, dated 2009).

The molecules below were run on Human Umbilical Vein Endothelial cells (assay: VEGF-stimulated HUVEC proliferation assay). Settings: 72 h, CyQuant, read-out: inhibited VEGF-stimulated HUVEC proliferation at a level.
Type: cell-based
Method: Human Umbilical Vein Endothelial cells are purchased from Clonetics, Inc., as cryopreserved cells harvested from a pool of donors. These cells, at passage 1, are thawed and expanded in EBM-2 complete medium, until passage 2 or 3. The cells are trypsinized, washed in DMEM+10% FBS+antibiotics, and spun at 1000 rpm for 10 min. Prior to centrifugation of the cells, a small amount is collected for a cell count. After centrifugation, the medium is discarded, and the cells are resuspended in the appropriate volume of DMEM+10% FBS+antibiotics to achieve a concentration of 3×10^5 cells/mL. Another cell count is performed to confirm the cell concentration. The cells are diluted to 3×10^4 cells/mL in DMEM+10% FBS+antibiotics, and 100 μL of cells are added to a 96-well plate. The cells are incubated at 37° C. for 22 h.
Prior to the completion of the incubation period, compound dilutions are prepared. Five-point, five-fold serial dilutions are prepared in DMSO, at concentrations 400-fold greater than the final concentrations desired. 2.5 μL of each compound dilution are diluted further in a total of 1 mL DMEM+10% FBS+antibiotics (400× dilution). Medium containing 0.25% DMSO is also prepared for the 0 μM compound sample. At the 22-hour timepoint, the medium is removed from the cells, and 100 μL of each compound dilution is added. The cells are incubated at 37° C. for 2-3 h.
During the compound pre-incubation period, the growth factors are diluted to the appropriate concentrations. Solutions of DMEM+10% FBS+antibiotics, containing either VEGF or bFGF at the following concentrations: 50, 10, 2, 0.4, 0.08, and 0 ng/mL are prepared. For the compound-treated cells, solutions of VEGF at 550 ng/mL or bFGF at 220 ng/mL for 50 ng/mL or 20 ng/mL final concentrations, respectively, are prepared since 10 μL of each will be added to the cells (110 μL final volume). At the appropriate time after adding the compounds, the growth factors are added. VEGF is added to one set of plates, while bFGF is added to another set of plates. For the growth factor control curves, the media on wells B4-G6 of plates 1 and 2 are replaced with media containing VEGF or bFGF at the varying concentrations (50-0 ng/mL). The cells are incubated at 37° C. for an additional 72 h.
At the completion of the 72 h incubation period, the medium is removed, and the cells are washed twice with PBS. After the second wash with PBS, the plates are tapped gently to remove excess PBS, and the cells are placed at −70° C. for at least 30 min. The cells are thawed and analyzed using the CyQuant fluorescent dye (Molecular Probes C-7026), following the manufacturer's recommendations. The plates are read on a Victor/Wallac 1420 workstation at 485 nm/530 nm (excitation/emission). Raw data are collected and analyzed using a 4-parameter fit equation in XLFit. IC50 values are then determined.

Compound | IC50 [nM]
CC1(C)CN(C(=O)CN)Cc2cc(NC(=O)c3cccnc3Nc3ccc4ccncc4c3)ccc21 [Example 75, N-[2-(2-Amino-acetyl)-4,4-dimethyl-1,2,3,4-tetrahydro-isoquinolin-7-yl]-2-(isoquinolin-7-ylamino)-nicotinamide] | < 1000
CCC(C)(C)c1ccc(NC(=O)c2cccnc2Nc2ccc3ccncc3c2)cc1 [Example 46, N-(4-(1,1-Dimethyl-propyl)-phenyl)-2-(isoquinolin-7-ylamino)-nicotinamide] | < 1000
CN1CCCC1COc1cc(NC(=O)c2cccnc2Nc2cccc3cnccc23)cc(C(F)(F)F)c1 (stereo not drawn) [Example 68, 2-(Isoquinolin-5-ylamino)-N-[3-(1-methyl-pyrrolidin-2-ylmethoxy)-5-trifluoromethyl-phenyl]-nicotinamide] | < 1000
CNc1ncnc2ccc(Nc3ncccc3C(=O)Nc3ccc4c(c3)CN(C(C)=O)CC4(C)C)cc12 [Example 16, N-(2-Acetyl-4,4-dimethyl-1,2,3,4-tetrahydro-isoquinolin-7-yl)-2-(4-methylamino-quinazolin-6-ylamino)-nicotinamide] | < 1000
CC(C)(C)c1ccc(NC(=O)c2cccnc2Nc2ccc3nc(N)nc(N)c3c2)cc1 [Example 66, 2-(2,4-diaminoquinazolin-6-ylamino)-N-(4-tert-butylphenyl)nicotinamide] | < 1000
Cc1ccc(NC(=O)c2cccnc2Nc2ccc3ccncc3c2)cc1Cl [Example 60, N-(3-chloro-4-methylphenyl)-2-(isoquinolin-7-ylamino)nicotinamide] | < 1000
O=C(Nc1ccc(N2CCC2)cn1)c1cccnc1Nc1ccc2ccncc2c1 [Example 47, N-(5-Azetidin-1-yl-pyridin-2-yl)-2-(isoquinolin-7-ylamino)-nicotinamide] | < 1000
Cc1nc2cc(NC(=O)c3cccnc3Nc3ccc4ccncc4c3)ccc2s1 [Example 39, 2-(isoquinolin-7-ylamino)-N-(2-methyl-1,3-benzothiazol-5-yl)nicotinamide] | < 1000
Cc1nc2cc(NC(=O)c3cccnc3Nc3ccc4[nH]nnc4c3)ccc2s1 [Example 23, 2-(1H-Benzotriazol-5-ylamino)-N-(2-methyl-benzothiazol-5-yl)-nicotinamide] | < 1000
CC1(C)CCNc2cc(NC(=O)c3cccnc3Nc3ccc4ncncc4c3)ccc21 [Example 57, N-(4,4-Dimethyl-1,2,3,4-tetrahydro-quinolin-7-yl)-2-(quinazolin-6-ylamino)-nicotinamide] | < 1000
COC(c1ccc(NC(=O)c2cccnc2Nc2ccc3ccncc3c2)cc1)(C(F)(F)F)C(F)(F)F [Example 10, 2-(Isoquinolin-7-ylamino)-N-[4-(2,2,2-trifluoro-1-methoxy-1-trifluoromethyl-ethyl)-phenyl]-nicotinamide] | < 1000
CC1(C)CNCc2cc(NC(=O)c3cccnc3Nc3ccc4ncncc4c3)ccc21 [Example 51, N-(4,4-Dimethyl-1,2,3,4-tetrahydro-isoquinolin-7-yl)-2-(quinazolin-6-ylamino)-nicotinamide] | < 1000
CC(C)(C)c1cc(NC(=O)c2cccnc2Nc2ccc3ccncc3c2)no1 [Example 15, N-(5-tert-Butyl-isoxazol-3-yl)-2-(isoquinolin-7-ylamino)-nicotinamide] | < 1000
CC(C)(C)c1ccc(NC(=O)c2ccccc2Nc2ccc3ccncc3n2)cc1 [Example 76, N-(4-tert-Butyl-phenyl)-2-([1,7]naphthyridin-2-ylamino)-benzamide] | < 1000
CC(=O)N1CC(C)(C)c2ccc(NC(=O)c3cccnc3Nc3ccc4ccncc4c3)cc21 [Example 31, N-(1-Acetyl-3,3-dimethyl-2,3-dihydro-1H-indol-6-yl)-2-(isoquinolin-7-ylamino)-nicotinamide] | < 1000
CC(C)(C)c1ccc(NC(=O)c2cccnc2Nc2ccc3ccncc3c2)cn1 [Example 42, N-(6-tert-Butyl-pyridin-3-yl)-2-(isoquinolin-7-ylamino)-nicotinamide] | < 1000
CC1(C)CNc2cc(NC(=O)c3cccnc3Nc3cccc4cnccc34)ccc21 [Example 70, N-(3,3-Dimethyl-2,3-dihydro-1H-indol-6-yl)-2-(isoquinolin-5-ylamino)-nicotinamide] | < 1000
CC1(C)CC(=O)Nc2nc(NC(=O)c3cccnc3Nc3ccc4ccncc4c3)ccc21 [Example 58, N-(5,5-dimethyl-7-oxo-5,6,7,8-tetrahydro-1,8-naphthyridin-2-yl)-2-(isoquinolin-7-ylamino)nicotinamide] | < 1000
CC1(C)CNc2cc(NC(=O)c3cccnc3Nc3ccc4ccncc4c3)ccc21 [Example 32, N-(3,3-Dimethyl-2,3-dihydro-1H-indol-6-yl)-2-(isoquinolin-7-ylamino)-nicotinamide] | < 1000
O=C(Nc1ccc(N2CCC2)nc1)c1cccnc1Nc1ccc2ccncc2c1 [Example 45, N-(6-Azetidin-1-yl-pyridin-3-yl)-2-(isoquinolin-7-ylamino)-nicotinamide] | < 1000
CC(C)(C)OC(=O)N1Cc2cc(NC(=O)c3cccnc3Nc3cnc4ccncc4c3)ccc2C(C)(C)C1 [Example 36, 4,4-Dimethyl-7-{[2-([1,6]naphthyridin-3-ylamino)-pyridine-3-carbonyl]-amino}-3,4-dihydro-1H-isoquinoline-2-carboxylic acid tert butyl ester] | < 1000
O=C(Nc1ccc(C(O)(C(F)(F)F)C(F)(F)F)cc1)c1cccnc1Nc1cnc2ccncc2c1 [Example 38, 2-([1,6]Naphthyridin-3-ylamino)-N-[4-(2,2,2-trifluoro-1-hydroxy-1-trifluoromethyl-ethyl)-phenyl]-nicotinamide] | < 1000
CC(C)(C)c1ccc(NC(=O)c2cccnc2Nc2cccc3ncccc23)cc1 [Example 72, N-(4-(1,1-dimethylethyl)phenyl)-2-(5-quinolinylamino)-3-pyridinecarboxamide] | < 1000
Cc1cc(NC(=O)c2cccnc2Nc2ccc3ccncc3c2)ccc1C(F)(F)C(F)(F)F [Example 48, 2-(Isoquinolin-7-ylamino)-N-(3-methyl-4-pentafluoroethyl-phenyl)-nicotinamide] | < 1000
O=C(Nc1cc(OCC2CCCO2)cc(C(F)(F)F)c1)c1cccnc1Nc1ccc2ccncc2c1 (stereo not drawn) [Example 40] | < 1000
O=C(Nc1ccc(Cl)c(C(F)(F)F)c1)c1cccnc1Nc1ccc2ccncc2c1 [Example 34, N-(4-Chloro-3-trifluoromethyl-phenyl)-2-(isoquinolin-7-ylamino)-nicotinamide] | < 1000
CC(C)(C)c1ccc(NC(=O)c2cccnc2Nc2ccc3ccncc3c2)cc1 [Example 14, N-(4-tert-Butyl-phenyl)-2-(isoquinolin-7-ylamino)-nicotinamide] | < 1000
Cc1cc(NC(=O)c2cccnc2Nc2ccc3ccncc3c2)ccc1N1CCCC1 [Example 62, 2-(isoquinolin-7-ylamino)-N-(3-methyl-4-(pyrrolidin-1-yl)phenyl)nicotinamide] | < 1000
Cc1cc(NC(=O)c2cccnc2Nc2ccc3ccncc3c2)ccc1C(C)C [Example 49, N-(4-Isopropyl-3-methyl-phenyl)-2-(isoquinolin-7-ylamino)-nicotinamide] | < 1000
CC(C)(C)c1cc(NC(=O)c2cccnc2Nc2cccc3cnccc23)on1 [Example 71, N-(3-tert-butylisoxazol-5-yl)-2-(isoquinolin-5-ylamino)nicotinamide] | < 1000
